# Patent US20170334804A1, “F-18 LABELED TRACER AND METHODS OF MANUFACTURE” (The General Hospital Corporation, priority 2014, published 2017)
# Tested on: patients with stable coronary artery disease (CAD)
# Assay: PET/CT myocardial perfusion imaging in patients with stable CAD, compared with 99mTc Sestamibi SPECT and CTA
# Assay type: in vivo, human
# Details: for detecting areas of reversible myocardial perfusion: PET with FTPP vs SPECT with 99mTc Sestamibi, baseline and post-adenosine
# Experimental: One of the objectives of this study: the PET image properties of FTPP as a myocardial perfusion agent were evaluated in patients with stable coronary artery disease (CAD).
# Patients with stable CAD were included in a 3 day study protocol. Safety endpoints included vital signs, 12 lead ECG and clinical laboratory tests. Imaging was performed with Siemens Biograph 64 PET/CT scanner and imaging entailed a CT for positioning, attenuation measurement and evaluation of coronary artery anatomy (day-1). This was followed by baseline and post-adenosine SPECT imaging with ^99mTc Sestamibi. On day 2, 10 mCi of FTPP was administered followed by a second 10 mCi dose of FTPP and PET/CT imaging.
SMILES,"image resolution, stress PET vs stress MIBI SPECT (FIG. 2, person with chest pain)","stress images, detection of ischemia (FIG. 3, stress images)",detecting areas of reversible myocardial perfusion,extraction from blood (patients with stable CAD),heart uptake over time (patients with stable CAD),imaging window after injection (patients with stable CAD),target-to-background ratios (patients with stable CAD),"blood flow imaging properties (patients with stable CAD, preliminary findings)","safety (vital signs, 12 lead ECG, clinical laboratory tests)"
"Fc1ccc([P+](c2ccccc2)(c2ccccc2)c2ccccc2)cc1 [FTPP, 4-[^18F]Fluorophenyltriphenylphosphonium ion]",high resolution,confirming ischemia,similarly effective,rapid,stable,≤ 30 min,high,excellent,safe
"[C-]#[N+]CC(C)(C)OC.[C-]#[N+]CC(C)(C)OC.[C-]#[N+]CC(C)(C)OC.[C-]#[N+]CC(C)(C)OC.[C-]#[N+]CC(C)(C)OC.[C-]#[N+]CC(C)(C)OC.[Tc] [^99mTc Sestamibi, reference compound]",–,–,similarly effective,–,–,–,–,–,–
